# In patent US9247759B2, “Identification of human T2R receptors that respond to bitter compounds that elicit the bitter taste in compositions, and the use thereof in assays to identify compounds that inhibit (block) bitter taste in compositions and use thereof” (SENOMYX, INC., priority 2007, dated 2016):
# Values joined by “and” are separate entries in the source; they are usually repeats but may differ in a detail not shown here. Equal values may be shown once. Read-outs that look alike come from different tables or passages of the source.
# Key:
# [1] = molecular target: hT2R7 (Homo sapiens (Human), UniProt Q9NYW3); test: hT2R panel inhibition, transient HEK293 G16g44, agonist Chloroquine pH6.5 10 mM; type: cell-based; conditions: HEK293, compound at 25 μM
# In short: (§1)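 Receptor activity was measured in functional assays after single-receptor transient transfection; bitter agonists were used at their EC80 levels. A decrease in that activity when the test compound was added was taken as inhibition.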
# [2] = molecular target: hT2R61 (Homo sapiens (Human), UniProt P59537); test: hT2R panel inhibition, transient HEK293 G16g44, agonist Aristolochic Acid 25 nM; type: cell-based; conditions: HEK293, compound at 25 μM
# In short: as §1
# [3] = molecular target: hT2R10 (Homo sapiens (Human), UniProt Q9NYW0); test: hT2R panel inhibition, transient HEK293 G16g44, agonist Strychnine 50 μM; type: cell-based
# [4] = molecular target: hT2R64 (Homo sapiens (Human), UniProt P59538); test: hT2R panel inhibition, transient HEK293 G16g44, agonist Aristolochic Acid 1 μM; type: cell-based; conditions: HEK293, compound at 25 μM
# In short: as §1
# [5] = molecular target: T1, hT2R14 (Homo sapiens (Human), UniProt Q9NYV8); test: hT2R14 antagonist high-throughput FLIPR assay, stable cell line with G16g44, agonist aristolochic acid; type: cell-based
# In short: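 HEK293 cells stably expressing hT2R14 with chimeric G16g44 were stimulated with aristolochic acid (3 μM), giving 70-80% of maximal receptor activity. Test compounds were added together with the agonist, and antagonism was read as fluorescent calcium signal on FLIPR.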
# [6] = system: hT2R67; test: hT2R panel inhibition, transient HEK293 G16g44, agonist Andrographolide 5 μM; type: cell-based, human; conditions: compound at 25 μM
# In short: as §1
# [7] = system: hT2R63; test: hT2R panel inhibition, transient HEK293 G16g44, agonist Caffeine 1 mM or Andrographolide 100 μM; type: cell-based, human; conditions: compound at 25 μM; for screening result against bitter receptor 63: receptor activated to EC80 with the corresponding agonist
# In short: as §1
# [8] = system: hT2R44; test: hT2R panel inhibition, transient HEK293 G16g44, agonist Denatonium 0.5 μM; type: cell-based, human; conditions: compound at 25 μM; for screening result against bitter receptor 44: receptor activated to EC80 with the corresponding agonist
# In short: as §1
# [9] = molecular target: hT2R71 (Homo sapiens (Human), UniProt P59536); test: hT2R panel inhibition, transient HEK293 G16g44, agonist Picric Acid 10 μM; type: cell-based; conditions: HEK293, compound at 25 μM
# In short: as §1
# [10] = molecular target: hT2R3 (Homo sapiens (Human), UniProt Q9NYW6); test: hT2R panel inhibition, transient HEK293 G16g44, agonist Chloroquine pH6.5 50 μM; type: cell-based; conditions: HEK293, compound at 25 μM
# In short: as §1
# [11] = molecular target: hT2R16 (Homo sapiens (Human), UniProt Q9NYV7); test: hT2R panel inhibition, transient HEK293 G16g44, agonist Salicin 1 mM; type: cell-based; conditions: HEK293, compound at 25 μM
# In short: as §1
# [12] = molecular target: T1, hT2R14; test: hT2R panel inhibition, transient HEK293 G16g44, agonist Aristolochic Acid 2 μM; type: cell-based; conditions: HEK293, compound at 25 μM
# In short: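 Each hT2R was transiently transfected into HEK293 cells stably expressing G16g44 and assayed functionally for inhibition of agonist response. Agonists were applied at EC80: andrographolide at 0.5 mM for hT2R8 and aristolochic acid at 2 μM for hT2R14.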
# [13] = system: hT2R54; test: hT2R panel inhibition, transient HEK293 G16g44, agonist Ranitidine 5 mM; type: cell-based, human; conditions: compound at 25 μM
# In short: as §1
# [14] = molecular target: hT2R5 (Homo sapiens (Human), UniProt Q9NYW4); test: hT2R panel inhibition, transient HEK293 G16g44, agonist Picoline 10 mM; type: cell-based; conditions: HEK293, compound at 25 μM
# In short: as §1
# [15] = molecular target: hT2R4 (Homo sapiens (Human), UniProt Q9NYW5); test: hT2R panel inhibition, transient HEK293 G16g44, agonist Chloroquine pH6.5 5 mM; type: cell-based; conditions: HEK293, compound at 25 μM
# Description: Specifically, in order to evaluate the inhibitory selectivity of the Compound C compound, this compound was tested against 22 human T2Rs which were deorphaned by Senomyx. These receptors and the bitter ligands that activate these human T2Rs are reported in earlier patent applications which are incorporated by reference herein. These 22 human T2Rs are hT2R1, 3, 4, 5, 7, 8, 9, 10, 13, 14, 16, 44, 51, 54, 55, 61, 63, 64, 65, 67, 71 and 75. The amino acid and nucleic acid sequences of all of these T2Rs may be found in these earlier patent applications. These human T2Rs were each individually transiently transfected into HEK293 cells that stably express the promiscuous G protein G16g44 and functional assays were effected using these receptors as disclosed in these same patent applications. […] The ligands were used at EC80 concentration levels. The list of bitter ligands utilized and the tested ligand concentrations are contained in Table 5 of this example.
# Relating to the foregoing, FIG. 5 contains experimental results wherein Compound C was tested with different agonist compounds. The inhibition activity is represented by the reduction of receptor activity in the presence of Compound C. […] These 13 hT2Rs are hT2R3, 7, 10, 14, 16, 44, 51, 55, 61, 63, 64, 65, and 71.
# [16] = system: hT2R55; test: hT2R panel inhibition, transient HEK293 G16g44, agonist Cinchonine 150 μM; type: cell-based, human; conditions: compound at 25 μM; for screening result against bitter receptor 55: receptor activated to EC80 with the corresponding agonist
# In short: as §1
# [17] = molecular target: hT2R75 (Homo sapiens (Human), UniProt P59540); test: hT2R panel inhibition, transient HEK293 G16g44, agonist Strychnine 1 μM; type: cell-based; conditions: HEK293, read-out: screening result against bitter receptor 75, compound at 25 μM; receptor activated to EC80 with the corresponding agonist
# [18] = system: hT2R65; test: hT2R panel inhibition, transient HEK293 G16g44, agonist Oleuropein 1 mM; type: cell-based, human; conditions: compound at 25 μM
# In short: as §1
# [19] = molecular target: hT2R51 (Homo sapiens (Human), UniProt P59533); test: hT2R panel inhibition, transient HEK293 G16g44, agonist Prop 2.5 μM; type: cell-based; conditions: HEK293, compound at 25 μM; receptor activated to EC80 with agonist; read-out: inhibition of bitter receptor 51
# In short: as §1
# [20] = receptor activated to EC80 with the corresponding agonist, read-out: screening result against bitter receptor 7
# [21] = receptor activated to EC80 with the corresponding agonist, read-out: screening result against bitter receptor 61
# [22] = HEK293, read-out: screening result against bitter receptor 10, compound at 25 μM, receptor activated to EC80 with the corresponding agonist
# [23] = receptor activated to EC80 with the corresponding agonist, read-out: screening result against bitter receptor 64
# [24] = receptor activated to EC80 with the corresponding agonist
# [25] = receptor activated to EC80 with the corresponding agonist, read-out: screening result against bitter receptor 71
# [26] = receptor activated to EC80 with the corresponding agonist, read-out: screening result against bitter receptor 3
# [27] = receptor activated to EC80 with the corresponding agonist, read-out: screening result against bitter receptor 16
# [28] = receptor activated to EC80 with the corresponding agonist, read-out: screening result against bitter receptor 14
# [29] = receptor activated to EC80 with the corresponding agonist, class symbols, read-out: screening result against bitter receptor 4
# [30] = receptor activated to EC80 with agonist
# [31] = read-out: IC50 on hT2R14 bitter receptor
# Chain of hT2R3 (Q9NYW6 whole entry): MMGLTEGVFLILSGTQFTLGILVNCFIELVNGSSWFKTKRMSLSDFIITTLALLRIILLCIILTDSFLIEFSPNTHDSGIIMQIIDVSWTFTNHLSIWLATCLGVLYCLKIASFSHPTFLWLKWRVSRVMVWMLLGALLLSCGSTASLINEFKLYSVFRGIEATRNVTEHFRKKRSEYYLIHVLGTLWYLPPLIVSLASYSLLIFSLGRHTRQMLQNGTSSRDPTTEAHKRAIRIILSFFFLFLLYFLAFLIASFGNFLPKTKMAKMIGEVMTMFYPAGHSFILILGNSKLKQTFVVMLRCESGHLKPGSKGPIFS
# Chain of hT2R4 (Q9NYW5 whole entry): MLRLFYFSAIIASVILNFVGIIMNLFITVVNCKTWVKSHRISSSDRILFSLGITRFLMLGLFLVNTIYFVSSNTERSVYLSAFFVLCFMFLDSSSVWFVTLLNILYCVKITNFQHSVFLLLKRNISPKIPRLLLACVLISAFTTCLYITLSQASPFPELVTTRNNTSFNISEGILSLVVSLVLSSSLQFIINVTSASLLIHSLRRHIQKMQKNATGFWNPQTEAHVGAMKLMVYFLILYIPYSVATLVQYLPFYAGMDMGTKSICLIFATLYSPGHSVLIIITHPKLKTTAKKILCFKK
# Chain of hT2R61 (P59537 whole entry): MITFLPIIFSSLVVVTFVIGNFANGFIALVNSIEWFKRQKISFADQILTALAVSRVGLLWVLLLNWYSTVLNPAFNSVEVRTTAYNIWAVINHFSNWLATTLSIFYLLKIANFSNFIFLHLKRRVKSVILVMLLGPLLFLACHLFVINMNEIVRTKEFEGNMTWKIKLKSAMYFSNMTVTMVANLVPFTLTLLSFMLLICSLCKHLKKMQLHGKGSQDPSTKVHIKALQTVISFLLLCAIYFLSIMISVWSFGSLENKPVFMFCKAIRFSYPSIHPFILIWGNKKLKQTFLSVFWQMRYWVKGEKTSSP
# Chain of hT2R7 (Q9NYW3 whole entry): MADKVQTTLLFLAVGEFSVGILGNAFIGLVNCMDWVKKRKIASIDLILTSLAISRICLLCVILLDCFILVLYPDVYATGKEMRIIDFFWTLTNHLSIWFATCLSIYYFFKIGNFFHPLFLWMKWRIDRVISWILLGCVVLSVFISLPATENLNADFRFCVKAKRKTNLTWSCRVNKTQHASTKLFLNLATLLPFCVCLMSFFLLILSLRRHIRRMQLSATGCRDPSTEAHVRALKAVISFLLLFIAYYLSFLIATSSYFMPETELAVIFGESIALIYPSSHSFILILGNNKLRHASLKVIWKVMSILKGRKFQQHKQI
# Chain of hT2R71 (P59536 whole entry): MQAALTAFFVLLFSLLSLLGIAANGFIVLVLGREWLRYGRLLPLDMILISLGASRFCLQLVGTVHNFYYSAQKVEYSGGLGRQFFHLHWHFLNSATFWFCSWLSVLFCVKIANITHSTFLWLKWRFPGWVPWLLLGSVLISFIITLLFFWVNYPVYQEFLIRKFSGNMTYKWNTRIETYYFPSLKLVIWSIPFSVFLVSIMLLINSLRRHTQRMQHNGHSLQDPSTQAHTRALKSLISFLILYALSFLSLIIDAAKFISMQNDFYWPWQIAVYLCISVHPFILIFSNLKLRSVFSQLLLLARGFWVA
# Chain of hT2R64 (P59538 whole entry): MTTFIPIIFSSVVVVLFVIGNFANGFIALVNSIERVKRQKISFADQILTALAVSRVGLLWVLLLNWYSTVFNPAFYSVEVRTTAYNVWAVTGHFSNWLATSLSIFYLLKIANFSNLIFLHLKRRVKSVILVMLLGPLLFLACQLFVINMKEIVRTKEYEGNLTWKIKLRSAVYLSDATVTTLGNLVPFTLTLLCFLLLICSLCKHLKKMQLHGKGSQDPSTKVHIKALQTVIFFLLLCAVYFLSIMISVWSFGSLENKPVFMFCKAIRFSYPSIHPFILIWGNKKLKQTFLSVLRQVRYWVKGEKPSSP
# Chain of hT2R16 (Q9NYV7 whole entry): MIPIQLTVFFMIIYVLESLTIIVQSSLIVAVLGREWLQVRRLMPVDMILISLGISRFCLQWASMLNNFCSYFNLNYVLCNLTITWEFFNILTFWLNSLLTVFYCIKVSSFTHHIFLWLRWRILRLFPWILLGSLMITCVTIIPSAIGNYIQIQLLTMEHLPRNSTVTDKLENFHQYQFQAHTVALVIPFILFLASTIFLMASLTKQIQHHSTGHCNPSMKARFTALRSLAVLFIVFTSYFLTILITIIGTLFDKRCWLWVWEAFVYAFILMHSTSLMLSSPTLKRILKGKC
# Chain of hT2R75 (P59540 whole entry): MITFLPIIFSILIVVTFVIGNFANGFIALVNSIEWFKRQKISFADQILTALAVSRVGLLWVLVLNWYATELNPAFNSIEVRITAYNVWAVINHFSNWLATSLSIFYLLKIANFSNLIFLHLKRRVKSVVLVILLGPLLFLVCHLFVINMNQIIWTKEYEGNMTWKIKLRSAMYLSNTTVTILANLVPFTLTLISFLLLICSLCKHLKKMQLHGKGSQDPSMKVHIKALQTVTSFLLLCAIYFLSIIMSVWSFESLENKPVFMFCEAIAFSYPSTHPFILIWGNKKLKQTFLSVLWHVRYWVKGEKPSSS
# Chain of hT2R10 (Q9NYW0 whole entry): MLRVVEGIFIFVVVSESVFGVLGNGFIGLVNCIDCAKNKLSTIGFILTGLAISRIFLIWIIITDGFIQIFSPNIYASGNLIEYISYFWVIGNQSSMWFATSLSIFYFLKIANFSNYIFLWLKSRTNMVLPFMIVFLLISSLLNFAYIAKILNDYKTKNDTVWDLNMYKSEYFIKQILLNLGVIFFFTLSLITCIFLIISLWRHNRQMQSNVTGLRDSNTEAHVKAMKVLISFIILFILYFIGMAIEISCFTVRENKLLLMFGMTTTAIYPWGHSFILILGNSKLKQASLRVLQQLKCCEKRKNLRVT
# T1 sequence (Q9NYV8 whole entry): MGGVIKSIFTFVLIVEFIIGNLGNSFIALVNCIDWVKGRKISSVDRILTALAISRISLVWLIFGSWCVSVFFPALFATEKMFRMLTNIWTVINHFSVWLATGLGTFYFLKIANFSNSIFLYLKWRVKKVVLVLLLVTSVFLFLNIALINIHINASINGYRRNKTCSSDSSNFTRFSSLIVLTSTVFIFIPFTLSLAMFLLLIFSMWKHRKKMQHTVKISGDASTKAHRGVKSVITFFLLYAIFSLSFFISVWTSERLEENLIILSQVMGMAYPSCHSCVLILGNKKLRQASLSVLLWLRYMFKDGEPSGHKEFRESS
# Chain of hT2R5 (Q9NYW4 whole entry): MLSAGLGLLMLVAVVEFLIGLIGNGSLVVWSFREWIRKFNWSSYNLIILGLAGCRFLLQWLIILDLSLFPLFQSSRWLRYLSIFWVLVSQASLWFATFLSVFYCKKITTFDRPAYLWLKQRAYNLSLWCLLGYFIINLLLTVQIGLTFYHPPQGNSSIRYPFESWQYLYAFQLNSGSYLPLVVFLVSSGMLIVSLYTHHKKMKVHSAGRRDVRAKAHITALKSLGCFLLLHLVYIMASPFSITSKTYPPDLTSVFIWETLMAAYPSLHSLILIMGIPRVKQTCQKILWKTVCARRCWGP
# Chain of hT2R51 (P59533 whole entry): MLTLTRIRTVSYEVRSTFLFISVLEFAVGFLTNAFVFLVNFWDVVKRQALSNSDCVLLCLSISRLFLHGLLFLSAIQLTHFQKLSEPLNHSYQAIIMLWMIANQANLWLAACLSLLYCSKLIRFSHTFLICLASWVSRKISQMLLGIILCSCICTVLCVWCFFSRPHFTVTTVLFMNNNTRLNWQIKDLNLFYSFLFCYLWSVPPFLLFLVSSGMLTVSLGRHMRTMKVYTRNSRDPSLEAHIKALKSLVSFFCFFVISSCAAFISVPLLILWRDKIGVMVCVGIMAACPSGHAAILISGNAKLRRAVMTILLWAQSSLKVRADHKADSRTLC
Structure (SMILES),"inhibition at 25 µM [1, 20]","inhibition at 25 µM [2, 21]","inhibition at 25 µM [3, 22]","inhibition at 25 µM [4, 23]",screening result against bitter receptor 63 [7],screening result against bitter receptor 44 [8],"inhibition at 25 µM [9, 25]","inhibition at 25 µM [10, 26]","inhibition at 25 µM [11, 27]","inhibition at 25 µM [12, 28]","inhibition at 25 µM [15, 29]",screening result against bitter receptor 55 [16],inhibition at 25 µM [17],"IC50 [5, 31]",also measured
"O=C(O)c1ccc(CN(Cc2ccc(F)cc2)S(=O)(=O)c2ccccc2)cc1 [Example 5-105, 4-((N-(4-fluorobenzyl)phenylsulfonamido)methyl)-benzoic acid]",20 to 40%,> 80%,20 to 40%,> 80%,++ (40% to 60% inhibition = ++),++ (40% to 60% inhibition = ++),60 to 80%,20 to 40%,40 to 60%,> 80%,20 to 40%,++++ (80% or greater inhibition = ++++),20 to 40%,–,"IC50 ([5]; Table C, read-out: hT2R14 IC50): 0.935 µM; screening result against bitter receptor 67 [6, 24]: ++ (40% to 60% inhibition = ++); screening result against bitter receptor 54 [13, 24]: + (20% to 40% inhibition = +); inhibition at 25 µM ([14]; receptor activated to EC80 with the corresponding agonist, read-out: screening result against bitter receptor 5): 20 to 40%; screening result against bitter receptor 65 [18, 24]: +++ (60% to 80% inhibition = +++)"
"CCOc1ccc(CN(Cc2ccccc2)S(=O)(=O)c2ccc(C(=O)O)cc2)cc1 [Example 5-108, 4-(N-benzyl-N-(4-ethoxybenzyl)sulfamoyl)benzoic acid]",–,–,–,–,–,–,–,–,–,–,–,–,–,–,"inhibition at 25 µM ([1]; receptor activated to EC80 with agonist, read-out: inhibition of bitter receptor 7): 20 to 40%; inhibition at 25 µM ([2]; receptor activated to EC80 with agonist, read-out: inhibition of bitter receptor 61): > 80%; inhibition at 25 µM ([3]; HEK293, read-out: inhibition of bitter receptor 10, compound at 25 μM, receptor activated to EC80 with agonist): 40 to 60%; inhibition at 25 µM ([4]; receptor activated to EC80 with agonist, read-out: inhibition of bitter receptor 64): > 80%; inhibition of bitter receptor 67 [6, 30]: + (20% to 40% inhibition = +); inhibition of bitter receptor 63 [7, 30]: +++ (60% to 80% inhibition = +++); inhibition of bitter receptor 44 [8, 30]: +++ (60% to 80% inhibition = +++); inhibition at 25 µM ([9]; receptor activated to EC80 with agonist, read-out: inhibition of bitter receptor 71): 60 to 80%; inhibition at 25 µM ([10]; receptor activated to EC80 with agonist, read-out: inhibition of bitter receptor 3): 40 to 60%; inhibition at 25 µM ([11]; receptor activated to EC80 with agonist, read-out: inhibition of bitter receptor 16): 20 to 40%; inhibition at 25 µM ([12]; receptor activated to EC80 with agonist, read-out: inhibition of bitter receptor 14): > 80%; inhibition of bitter receptor 54 [13, 30]: + (20% to 40% inhibition = +); inhibition at 25 µM ([14]; receptor activated to EC80 with agonist, read-out: inhibition of bitter receptor 5): 20 to 40%; inhibition at 25 µM ([15]; receptor activated to EC80 with agonist, read-out: inhibition of bitter receptor 4): 60 to 80%; inhibition of bitter receptor 55 [16, 30]: ++++ (80% or greater inhibition = ++++); inhibition at 25 µM [19]: 40 to 60%; inhibition of bitter receptor 65 [18, 30]: ++ (40% to 60% inhibition = ++)"
"O=C(O)C1CCC(CN(Cc2ccc(F)cc2)S(=O)(=O)c2ccccc2)CC1 (stereo not shown) [Example 5-22, 4-((N-(4-fluorobenzyl)phenylsulfonamido)methyl)-cyclohexanecarboxylic acid]",20 to 40%,> 80%,20 to 40%,40 to 60%,+++ (60% to 80% inhibition = +++),++ (40% to 60% inhibition = ++),40 to 60%,40 to 60%,20 to 40%,> 80%,40 to 60%,+++ (60% to 80% inhibition = +++),20 to 40%,0.24 µM,–
"CCN(Cc1ccc(OC)cc1)S(=O)(=O)c1ccc(C(=O)O)cc1 [Example 5-4, 4-(N-ethyl-N-(4-methoxybenzyl)sulfamoyl)benzoic acid]",–,20 to 40%,40 to 60%,> 80%,+++ (60% to 80% inhibition = +++),–,–,–,–,40 to 60%,20 to 40%,++++ (80% or greater inhibition = ++++),20 to 40%,20 µM and 10 µM,–
